# How the values were obtained:
# [1] = MTT cell viability assay in Vero E6 cells; format: cell-based; settings: African green monkey
# [2] = system: SARS-CoV-2 M^pro (NanoLuc-nsp4-M^pro fusion protein); format: cell-based
# SARS-CoV-2 [3] = test: Plaque reduction assay; format: cell-based, SARS-CoV-2/NL/2020 strain; settings: ratio between CC50 and EC50; SARS-CoV-2, Vero E6 cells
# SARS-CoV-2 M^pro = SARS-CoV-2 M^pro (Severe acute respiratory syndrome coronavirus 2, UniProt P0DTD1); test: FRET-based SARS-CoV-2 M^pro activity assay in vitro; format: biochemical; settings: for Inhibitory effect on M^pro catalytic activity at fixed concentration: 100 μM, cut-off 50% of inhibition
# HCoV-229E = test: microbe, parasite or virus in culture; format: cell-based; settings: for EC50: Human coronavirus 229E, MRC5, 144 h, read-out: HCoV-229E EC50
# [4] = MTT cell viability assay in MRC-5 cells; format: cell-based; settings: human
# HCoV-OC43 = test: Plaque reduction assay against HCoV-OC43 in MRC-5 cells; format: cell-based; settings: infected MRC-5 cells
# SARS-CoV-2 [5] = test: Virus yield reduction assay of SARS-CoV-2 in Calu-3 cells; format: cell-based; settings: MOI 0.01, 36 h p.i., titration on Vero E6
Compound,CC50 at 72 h [1],"SI, Selectivity Index (SARS-CoV-2 [3])",IC50 (SARS-CoV-2 M^pro),Inhibitory effect on M^pro catalytic activity at fixed concentration (SARS-CoV-2 M^pro),further results
"CC(C)(C)NC(=O)N[C@H](C(=O)N1C[C@H]2[C@@H]([C@H]1C(=O)NC(CC1CCC1)C(=O)C(N)=O)C2(C)C)C(C)(C)C (stereo partly drawn) [BOC, Boceprevir, reference compound]",> 500 µM,,,,Inhibition of proteolytic cleavage of NanoLuc-nsp4-M^pro in cells [2]: not detected
CCOc1ccc(NC(=O)C(=O)NCCc2csc3nc(-c4cccs4)nn23)cc1 [Compound 1],> 500 µM,>10,142 ± 12 µM,exerted an inhibitory effect,
CC(NC(=O)C(=O)NCCN1CCOCC1)C(c1cccs1)N1CCN(c2ccccc2)CC1 (stereo not drawn) [Compound 2],> 500 µM,>10,,,
CCOc1ccccc1NC(=O)C(=O)NCC(c1cccnc1)N1CCN(c2ccccc2)CC1 (stereo not drawn) [Compound 3],> 500 µM,>40,,not a significant inhibitory effect,Activity towards HCoV-229E (HCoV-229E): retained activity; EC50 (HCoV-229E): 34.6 ± 8.5 µM; CC50 at 72 h [4]: > 500 µM; Activity towards HCoV-OC43 (HCoV-OC43): retained activity
O=C(NCc1ccc(F)cc1)C(=O)NCC(c1cccnc1)N1CCN(c2ccccc2)CC1 (stereo not drawn) [Compound 4],> 500 µM,>24,,not a significant inhibitory effect,Activity towards HCoV-229E (HCoV-229E): retained activity; EC50 (HCoV-229E): 23.8 ± 9.9 µM; CC50 at 72 h [4]: 300 ± 18 µM; Activity towards HCoV-OC43 (HCoV-OC43): retained activity
O=C(Nc1ccc2c(c1)OCO2)c1nnc(C(=O)N2CCCC(C(=O)NCc3ccccc3)C2)s1 (stereo not drawn) [Compound 5],207 ± 14 µM,29,29 ± 3.7 µM,exerted an inhibitory effect,Activity towards HCoV-229E (HCoV-229E): retained activity; EC50 (HCoV-229E): 10.4 ± 4.1 µM; CC50 at 72 h [4]: 100 ± 11.9 µM; SARS-CoV-2 titers in supernatants of infected and treated Calu-3 cells (SARS-CoV-2 [5]): significantly reduced SARS-CoV-2 titers; Activity towards HCoV-OC43 (HCoV-OC43): retained activity
CCC(C)C(NC(=O)C1N2C(=O)c3ccccc3C2SC1(C)C)C(=O)NC(CO)C(C)C (stereo not drawn) [Compound 6],> 500 µM,,> 100 µM,not a significant inhibitory effect,Activity towards HCoV-229E (HCoV-229E): retained activity; EC50 (HCoV-229E): 22.9 ± 4.9 µM; CC50 at 72 h [4]: > 500 µM; SARS-CoV-2 titers in supernatants of infected and treated Calu-3 cells (SARS-CoV-2 [5]): significantly reduced SARS-CoV-2 titers; Activity towards HCoV-OC43 (HCoV-OC43): retained activity
COc1ccc(C(=O)Nc2ccccc2C(=O)NC(C(=O)Nc2ccccc2)C(C)C)cc1 (stereo not drawn) [Compound 7],> 500 µM,>10,111 ± 2.2 µM,exerted an inhibitory effect,
CCOC(=O)C(NC(=O)COc1ccccc1)(Nc1nc2ccccc2s1)C(F)(F)F (stereo not drawn) [Compound 8],68.8 ± 15.4 µM,3,,,
O=C(Nc1ccccc1C(=O)NCc1ccccc1)c1cc(S(=O)(=O)N2CCOCC2)ccc1F [Compound 9],> 500 µM,>10,,,
O=C(CCC(=O)NNC(=O)C(c1ccccc1)c1ccccc1)NCc1ccccc1 [Compound 10],> 500 µM,>10,128 ± 18.8 µM,exerted an inhibitory effect,
CC(=O)NCC(=O)NC1(C(=O)NC(c2ccccc2)c2ccccc2)CCCCC1 [Compound 11],> 500 µM,>10,,,
O=C(NC(Cc1ccccc1)C(=O)NCc1ccccn1)OCc1ccccc1 (stereo not drawn) [Compound 12],428 ± 11 µM,21,,not a significant inhibitory effect,
COc1ccc(NC2=NC(=O)CC(C(=O)NCc3ccccc3)N2)cc1 (stereo not drawn) [Compound 13],> 500 µM,>10,,,
CCN1CCN(C(C(=O)O)c2c[nH]c3ccc(NC(=O)CCC(=O)O)cc23)CC1 (stereo not drawn) [Compound 14],> 500 µM,>10,,,
CCOC(=O)C1=C(CN2CCCN(C(=O)OC(C)(C)C)CC2)NC(=O)NC1c1ccc(C)cc1 (stereo not drawn) [Compound 15],113 ± 3 µM,8,,,
COC(=O)C1=C(CN2CCN(C(=O)OC(C)(C)C)CC2)NC(=O)NC1c1ccccc1 (stereo not drawn) [Compound 16],401 ± 52 µM,10,,,
CCOC(=O)C1=C(CN2CCC(NC(=O)OC(C)(C)C)CC2)NC(=O)NC1c1ccccc1 (stereo not drawn) [Compound 17],228 ± 6 µM,>5,,,
COc1ccc(C(=O)COC(=O)C(Cc2ccccc2)N2C(=O)C3C4C=CC(C4)C3C2=O)cc1 (stereo not drawn) [Compound 18],> 500 µM,>10,,,

Compound,CC50 at 72 h [1],"SI, Selectivity Index (SARS-CoV-2 [3])",IC50 (SARS-CoV-2 M^pro),Inhibitory effect on M^pro catalytic activity at fixed concentration (SARS-CoV-2 M^pro),further results
CCc1cc(Br)cc2c(C(=O)N3CCOCC3)cc(-c3ccc(OC)cc3)nc12 [Compound 19],228 ± 69 µM,32,,not a significant inhibitory effect,
COc1ccc(C(=O)CN(C(=O)c2ccc(Cl)cc2)N2C(=O)CCC2=O)cc1 [Compound 20],> 500 µM,>10,,,
COc1ccc2c(c1)c(CC(=O)O)c(C)n2C(=O)c1ccc(Cl)cc1 [Compound 21],> 500 µM,>10,,,
Nc1ncnc2c1ncn2[C@@H]1O[C@H](CSCC[C@H](N)C(=O)O)[C@@H](O)[C@H]1O [Compound 22],> 500 µM,>10,,,
COc1ccc(Cc2nn3c([C@@H](CCCc4ccccc4)[C@@H](C)O)nc(C)c3c(=O)[nH]2)cc1OC [Compound 23],,,,not a significant inhibitory effect,
COc1ccc(-c2ocnc2C(=O)NCCCn2cncn2)cc1Cl [Compound 24],> 500 µM,,,not a significant inhibitory effect,
NC(=O)c1c(NC(=O)c2cnn3c(C(F)(F)F)cc(-c4ccccc4)nc23)sc2c1CCCC2 [Compound 25],> 250 µM,>31,26.6 ± 7.4 µM,exerted an inhibitory effect,EC50 (HCoV-229E): > 25 µM; CC50 at 72 h [4]: > 250 µM; SARS-CoV-2 titers in supernatants of infected and treated Calu-3 cells (SARS-CoV-2 [5]): significantly reduced SARS-CoV-2 titers; Activity towards HCoV-OC43 (HCoV-OC43): retained activity
COc1ccc(-c2cc(C(F)(F)F)n3ncc(C(=O)Nc4sc5c(c4C(N)=O)CCCC5)c3n2)cc1 [Compound 26],68.9 ± 10 µM,7,57.6 ± 4.1 µM,exerted an inhibitory effect,
Cc1ccc(-c2cc(C(F)(F)F)n3ncc(C(=O)Nc4sc5c(c4C(N)=O)CCCC5)c3n2)cc1 [Compound 27],67.9 ± 16.5 µM,5,46.2 ± 7.7 µM,exerted an inhibitory effect,
NC(=O)c1c(NC(=O)c2cnn3c(C(F)F)cc(-c4ccccc4)nc23)sc2c1CCCC2 [Compound 28],> 250 µM,>5,,,
CCC(C)NC(=O)c1ccccc1NC(=O)c1cccc(S(=O)(=O)Nc2ccccc2)c1 (stereo not drawn) [Compound 29],> 500 µM,,,not a significant inhibitory effect,Activity towards HCoV-229E (HCoV-229E): retained activity; EC50 (HCoV-229E): 15.7 ± 4.8 µM; CC50 at 72 h [4]: > 250 µM; Activity towards HCoV-OC43 (HCoV-OC43): retained activity
CCC(C)NC(=O)c1ccccc1NC(=O)c1ccc(C)c(S(=O)(=O)Nc2cccc(NC(=O)c3ccccc3)c2)c1 (stereo not drawn) [Compound 30],> 500 µM,>10,,,
"COc1ccc(C(=O)Nc2ccccc2C(=O)N[C@H](C(=O)Nc2ccccc2)C(C)C)cc1 [Compound 31, (S)-2-(4-Methoxybenzamido)-N-(3-methyl-1-oxo-1-(phenylamino)butan-2-yl)benzamide]",> 250 µM,>5,43.7 ± 9.2 µM,,Fold increase of inhibitory potency against M^pro compared to parental hit 7 (SARS-CoV-2 M^pro; compared to hit 7): > 2 fold
"COc1ccc(C(=O)Nc2ccccc2C(=O)N[C@H](C(=O)N[C@H](CO)C(C)C)C(C)C)cc1 [Compound 32, N-((S)-1-(((S)-1-Hydroxy-3-methylbutan-2-yl)amino)-3-methyl-1-oxobutan-2-yl)-2-(4-methoxybenzamido)benzamide]",> 250 µM,>8,> 200 µM,,
"COc1ccc(C(=O)Nc2ccccc2C(=O)N[C@H](C(=O)NC2CCCCC2)C(C)C)cc1 [Compound 33, (S)-N-(1-(Cyclohexylamino)-3-methyl-1-oxobutan-2-yl)-2-(4-methoxybenzamido)benzamide]",> 250 µM,>7,26.7 ± 7.3 µM,,
"CCNC(=O)[C@@H](NC(=O)c1ccccc1NC(=O)c1ccc(OC)cc1)C(C)C [Compound 34, (S)-N-(1-(Ethylamino)-3-methyl-1-oxobutan-2-yl)-2-(4-methoxybenzamido)benzamide]",> 250 µM,>5,,,
"CC(C)[C@H](NC(=O)c1ccccc1NC(=O)c1ccc(O)cc1)C(=O)N[C@H](CO)C(C)C [Compound 35, N-((S)-1-(((S)-1-Hydroxy-3-methylbutan-2-yl)amino)-3-methyl-1-oxobutan-2-yl)-2-(4-hydroxybenzamido)benzamide]",> 250 µM,>10,19 ± 8.4 µM,,
"CCC(CC)COC(=O)[C@H](C)N[P@](=O)(OC[C@H]1O[C@@](C#N)(c2ccc3c(N)ncnn23)[C@H](O)[C@@H]1O)Oc1ccccc1 [RMV, remdesivir, reference compound]",> 250 µM,,,,EC50 (HCoV-229E): 0.09 ± 0.03 µM

# From article PMC9172283 (Antiviral Research, 2022)
